According to patent US10914725B2, “Culture medium additive, culture medium composition, and method for culturing cells or tissue using same” (NISSAN CHEMICAL INDUSTRIES, LTD., priority 2015, dated 2021):

Legend:
[1] = test system: adenocarcinomic human alveolar basal epithelial cell line A549; test: High content analysis of anti-cancer agent by cell image analysis (Experimental Example 5); assay type: cell-based; conditions: 0.03 (w/v)% low-molecular agar medium; for average cell number per sphere / number of average spheres per 10 mm^2 / projected area: 10 days
Description: By a method similar to the preparation method of medium composition in Analysis Example 1, a medium composition containing 10 (v/v) % FBS, and 0.03 (w/v) % of low-molecular agar or agar for general use in DMEM (manufactured by Wako Pure Chemical Industries, Ltd.) was prepared. Paclitaxel (manufactured by Wako Pure Chemical Industries, Ltd.) was further added to a final concentration of 0.001 μM, 0.01 μM or 0.1 μM. Successively, adenocarcinomic human alveolar basal epithelial cell line A549 (manufactured by DS PHARMA BIOMEDICAL CO., LTD.) was seeded in the above-mentioned medium composition containing low-molecular agar at 5,000 cells/mL, and dispensed to the wells of a 96 well flat bottom ultra-low attachment surface microplate (manufactured by Corning Incorporated, #3474) at 100 μL per 1 well. Successively, the plate was cultured in a standing state in a CO2 incubator (37° C., 5% CO2) for 10 days.
Then, a solution of […] of Hoechst 33342 (manufactured by Invitrogen) in DMEM (phenol red, L-glutamine free) (manufactured by Wako Pure Chemical Industries, Ltd.) was prepared, and added, at 10 μL per 1 well, to the above-mentioned culture after static culture for 10 days, and the mixture was stood in a CO2 incubator (37° C., 5% CO2) for 45 min. Successively, a solution of 20 μg/mL Propidium Iodide (manufactured by BIOMOL) in DMEM (phenol red, L-glutamine free) (manufactured by Wako Pure Chemical Industries, Ltd.) was prepared and added at 10 μL per 1 well. The plate was centrifuged at 1,500 rpm for 10 min, and high content analysis was performed by cell image analysis using a cell imaging apparatus (“ArrayScan VTI HCS Reader”, manufactured by Thermo Fisher Scientific). At that time, observation was performed with 10 fields of view per well using a ×4 objective lens, cell outline and cell nucleus were detected from Hoechst33342 fluorescence image, and dead cells were detected from propidium iodide fluorescence image. In addition, 50% inhibitory concentration (nM) of paclitaxel by high content analysis was calculated with the number of constituent cells when the anticancer agent was added at the maximum concentration as 100% inhibition rate of sphere formation.
The observed images (area per 1 field: 1 mm^2) of A549 cells cultured for 10 days in the medium composition of the present invention containing low-molecular agar, negative control and comparison control (medium composition containing deacylated gellan gum) by a cell imaging apparatus are shown in FIG. 8. In addition, number of constituent cells of A549 cell spheres (average cell number per sphere), sphere number (average sphere number per 10 mm^2), projected area of sphere (size) (μm^2), obtained from the cell imaging analysis, are shown in Table 12. As for the negative control and comparison control, the relative cell number when the amount of luminescence without addition of the anticancer agent is 1 was determined from the measurement results of the surviving cell number using the intracellular ATP as an index, and shown in Table 13. Furthermore, the 50% inhibitory concentration (nM) of paclitaxel calculated from the amount of luminescence based on intracellular ATP and high content analysis are shown in Table 14.

[2] = test system: adenocarcinomic human alveolar basal epithelial cell line A549; test: CellTiter-Glo cell survival assay of paclitaxel (Experimental Example 5); assay type: cell-based; conditions: for IC50: Homo sapiens, A549, cell survival assay by fluorescence, read-out: paclitaxel 50% inhibitory concentration; for relative cell number (no anticancer agent = 1): 10 days
Description: As a negative control, a medium composition containing 10 (v/v) % FBS alone in DMEM (manufactured by Wako Pure Chemical Industries, Ltd.) was prepared. As a comparison control, in the same manner as in Experimental Example 3, a medium composition containing 10 (v/v) % FBS and 0.015 (w/v) % of deacylated gellan gum in DMEM (manufactured by Wako Pure Chemical Industries, Ltd.) was prepared. Paclitaxel was also added at the above-mentioned concentration to the negative control and comparison control medium compositions, A549 cells were suspended therein and the suspensions were dispensed. Successively, the plate was cultured in a standing state in a CO2 incubator (37° C., 5% CO2) for 10 days.
CellTiter-Glo Luminescent Cell Viability Assay (manufactured by Promega) (100 μL) was added to each cell culture medium of the negative control and comparison control, the mixture was stood for 10 min at room temperature, and the amount of luminescence was measured by a microplate reader (“FlexStation 3”, manufactured by Molecular Devices) and according to the protocol recommended by Promega. The amount of luminescence of the medium alone was subtracted, whereby the number of viable cells was measured. In addition, 50% inhibitory concentration (nM) of paclitaxel by the amount of luminescence was calculated with the number of viable cells when paclitaxel was not added as 0% inhibition rate.

For CC(=O)O[C@H]1C(=O)[C@@]2(C)[C@H]([C@H](OC(=O)c3ccccc3)[C@]3(O)C[C@H](OC(=O)[C@H](O)[C@@H](NC(=O)c4ccccc4)c4ccccc4)C(C)=C1C3(C)C)[C@]1(OC(C)=O)CO[C@@H]1C[C@@H]2O [paclitaxel, Paclitaxel], the IC50 ([1]; Homo sapiens, A549, high content analysis by cell image analysis, number of constituent cells, read-out: paclitaxel 50% inhibitory concentration) was 1.9 nM, the “average cell number per sphere” value ([1]; paclitaxel 0.001 μM) was 5.353 and the “number of average spheres per 10 mm^2” value ([1]; paclitaxel 0.001 μM) was 39.33. For the same compound, the projected area ([1]; paclitaxel 0.001 μM) was 1161 μm^2, the “average cell number per sphere” value ([1]; paclitaxel 0.01 μM) was 1.52 and the “number of average spheres per 10 mm^2” value ([1]; paclitaxel 0.01 μM) was 18. For the same compound, the projected area ([1]; paclitaxel 0.01 μM) was 578 μm^2, the “average cell number per sphere” value ([1]; paclitaxel 0.1 μM) was 1.165 and the “number of average spheres per 10 mm^2” value ([1]; paclitaxel 0.1 μM) was 6.333. For the same compound, the projected area ([1]; paclitaxel 0.1 μM) was 402 μm^2, the IC50 ([2]; comparison control medium (0.015 (w/v)% deacylated gellan gum)) was 2.9 nM and the IC50 ([2]; negative control medium (DMEM, 10% FBS alone)) was 4.4 nM. For the same compound, the “relative cell number (no anticancer agent = 1)” value ([2]; paclitaxel 0.001 μM, comparison control medium (0.015 (w/v)% deacylated gellan gum)) was 0.842, the “relative cell number (no anticancer agent = 1)” value ([2]; paclitaxel 0.001 μM, negative control medium (DMEM, 10% FBS alone)) was 1.004 and the “relative cell number (no anticancer agent = 1)” value ([2]; paclitaxel 0.01 μM, comparison control medium (0.015 (w/v)% deacylated gellan gum)) was 0.156. For the same compound, the “relative cell number (no anticancer agent = 1)” value ([2]; paclitaxel 0.01 μM, negative control medium (DMEM, 10% FBS alone)) was 0.249.
